Reference: patent US4634663A, “Method and reagent for quantitative determination of N-acetylhexosamine” (Noda Institute for Scientific Research, priority 1983, dated 1987)

Key:
Type in all cases: biochemical, Pseudomonas sp. No. 15-1
[1] = tested on: N-acetylhexosamine oxidase; assay: Activity inhibition of the enzyme by metallic ions or inhibitors; conditions: for Residual activity (%): tris-hydrochloric acid buffer solution of pH 7.5, 1.8mM metallic ion or inhibitor; for Inhibition of enzyme activity (in words): tris-hydrochloric acid buffer pH 7.5, 1.8mM
Procedure: The activity of the present enzyme was measured in various solutions each comprising a tris-hydrochloric acid buffer solution of pH 7.5 and 1.8mM metallic ion or inhibitor.

[2] = tested on: N-acetylhexosamine oxidase; assay: as above
[3] = tested on: N-acetylhexosamine oxidase; assay: Activity stabilization by bovine serum albumin during heat treatment; conditions: 1 mg/ml bovine serum albumin, potassium phosphate buffer pH 6.8, 10 minutes heat treatment
Procedure: Further, in 10 minutes heat treatment at 45° C., the present enzyme is stable between pH 3 and pH 9 and loses its activity rapidly at a more acidic region and slowly at a more alkaline region. In this experiment, the hydrogen peroxide method was adopted, and the residual activity of the present enzyme subjected to 10 minutes heat treatment in a potassium phosphate buffer solution of pH 6.8 at each temperature was compared with the residual activity of the same enzyme subjected to the same treatment in a potassium phosphate buffer solution of pH 6.8 containing 1 mg/ml of bovine serum albumin.

[4] = tested on: N-acetylhexosamine oxidase; assay: Action and specificity for substrate; conditions: in the presence of oxygen
Excerpt: As shown in the following reaction formula, the present enzyme oxidizes N-acetylhexosamine in the presence of oxygen to form N-acetylhexosaminic acid and hydrogen peroxide.

Compound	Residual activity (%) [1] [%]	further results
CCCCCCCCCCCCOS(=O)(=O)[O-].[Na+] [SDS, Sodium dodecylsulfate]	87	
[N-]=[N+]=[N-].[Na+] [NaN3]	103	
O=C([O-])CN(CCN(CC(=O)[O-])CC(=O)[O-])CC(=O)[O-].[Na+].[Na+].[Na+].[Na+] [EDTA, Ethylenediaminetetraacetic acid sodium salt]		Residual activity (%) ([2]; pH 7.5): 87%
c1ccc(-c2ccccn2)nc1 [α,α'-Dipyridyl]	106	
c1cnc2c(c1)ccc1cccnc12 [o'-Phenanthroline]	81	
[Ca+2].[Cl-].[Cl-] [CaCl2]	91	
O=S(=O)([O-])[O-].[Co+2] [CoSO4]	75	
O=S(=O)([O-])[O-].[Zn+2] [ZnSO4]	2	Inhibition of enzyme activity (in words) [1]: inhibited greatly
CC(=O)[O-].CC(=O)[O-].[Pb+2] [Pb(CH3 COO)2]	42	Inhibition of enzyme activity (in words) [1]: considerably
O=[N+]([O-])[O-].[Ag+] [AgNO3]		Residual activity (%) ([2]; Phosphate buffer solution, 1.8mM): 5%
NC(=O)CI [ICH2 CONH2]	90	
O=C(O)CF [FCH2 COONa]	107	
bovine serum albumin: bovine serum albumin added at 1 mg/ml as stabilizer of the enzyme		Effect on enzyme activity on heat treatment [3]: stabilized and moreover slightly enhanced
O=C(O)c1cc[c]([Hg][Cl])cc1 [PCMB, pChloromercurybenzoate]	67	
CC(=O)N[C@H]1[C@H]([C@H](O)[C@H](O)CO)OC(O)(C(=O)O)C[C@@H]1O (stereo partly drawn) [N-acetylneuraminic acid]		Action of the enzyme on substrate [4]: hardly acts or does not at all act
O=S(=O)([O-])[O-].[Mg+2] [MgSO4]	86	
O=S(=O)([O-])[O-].[Cu+2] [CuSO4]	74	
O=S(=O)([O-])[O-].[Fe+2] [FeSO4]	15	Inhibition of enzyme activity (in words) [1]: inhibited greatly
O=S(=O)([O-])[O-].[Mn+2] [MnSO4]	84	
Oc1cccc2cccnc12 [8-Hydroxyquinoline]		Residual activity (%) ([2]; pH 7.5): 102%
O=S(=O)([O-])[O-].[Ni+2] [NiSO4]	64	Inhibition of enzyme activity (in words) [1]: considerably
HgCl2	17	Inhibition of enzyme activity (in words) [1]: inhibited greatly
